Data on 22 compounds can be found in US20090176811A1, “Substituted 5,6,7,8-Tetrahydro-pyrido[4,3-d]pyrimidine-2-yl Compounds and 5,6,7,8-Tetrahydro-quinazoline-2-yl Compounds” (GRUENENTHAL GmbH, priority 2004, published 2009).

The target in one experiment is T1, 5-HT transporter (Rattus norvegicus, UniProt P31652).
T1 construct: from tissue; host or cells: rat medulla and pons synaptosomes (P2 fraction)
Description: 5-HT uptake inhibition in rat brain synaptosomes (medulla and pons). The experiment is classed as biochemical. The source says:
(§1) I. Method for Determining Noradrenalin and 5-HT Uptake Inhibition:
(§2) Synaptosomes from rat brain regions are freshly isolated for in vitro studies, as described in the publication “The isolation of nerve endings from brain” by E. G. Gray and V. P. Whittaker, J. Anatomy 96, pages 79-88, 1962. The corresponding literature description is hereby introduced as a reference and is deemed to be part of the disclosure.
(§3) The tissue (hypothalamus for the determination of noradrenalin uptake inhibition and medulla and pons for the determination of 5-HT uptake inhibition) is homogenised in ice-cooled 0.32 M sucrose (100 mg of tissue/1 mL) in a glass homogeniser with Teflon pestle using five complete up and down strokes at 840 revolutions/minute.
(§4) The homogenate is centrifuged at 4° C. for 10 minutes at 1000 g. After subsequent centrifugation at 17000 g for 55 minutes, the synaptosomes (P2 fraction) are obtained, which are resuspended in 0.32 M […] (0.5 mL/100 mg of original weight).
(§5) The particular uptake is measured in a 96-well microtitre plate. The volume is 250 μl and the incubation proceeds at room temperature (approx. 20-25° C.) under an O2 atmosphere.
(§6) The incubation time is 7.5 minutes for [^3H]-NA and 5 minutes for [^3H]-5-HT.
(§7) The 96 samples are then filtered through a Unifilter GF/B microtitre plate (Packard) and washed with 200 mL of incubated buffer using a “Brabdel MPXRI-96T Cell-Harvester”. The Unifilter GF/B plate is dried for 1 hour at 55° C. The plate is then sealed with a Back seal (Packard) and 35 μl of scintillation fluid are added per well (Ultima Gold, Packard). After sealing with a top seal (Packard) and establishing an equilibrium (around 5 hours), radioactivity is determined in a “Trilux 1450 Microbeta” (Wallac).
(§8) The quantity of protein used in the above determination corresponds to the values known from the literature, as for example described in “Protein measurement with the folin phenol reagent”, Lowry et al., J. Biol. Chem., 193, 265-275, 1951.
(§9) A detailed description of the method may additionally be found in the literature, for example in M. Ch. Frink, H.-H. Hennies, W. Engelberger, M. Haurand and B. Wilffert (1996) Arzneim.-Forsch./Drug Res. 46 (III), 11, 1029-1036.
(§10) The corresponding literature descriptions are hereby introduced in each case as a reference and are deemed to be part of the present disclosure.
(§11) The following characteristics were determined for the NA or 5-HT transporter: […]

The next experiment has as its target T2, mGluR5 receptor (Sus scrofa, UniProt I3LUI7).
T2 construct: 450 μg of protein from brain homogenate is incubated; from tissue; host or cells: pig brain hemispheres without medulla, cerebellum and pons
Description: Affinity for the mGluR5 receptor ([3H]-MPEP binding, pig brain homogenate). The following applies: 10 μM compound, 15 nM [3H]-MPEP. The method, then:
III. Method for Determining Affinity for the mGluR5 Receptor
Pig brain homogenate is produced by homogenisation (Polytron Pt 3000, Kinematica AG, 10,000 rpm (revolutions per minute) for 90 seconds) of pig brain hemispheres without medulla, cerebellum and pons in a buffer of pH 8.0 (30 mM Hepes, Sigma, order number H3375+1 tablet Complete Roche Diagnostics, order number 1836145 made up to 100 ml) in a ratio of 1:20 (brain weight/volume) and differential centrifugation at 900 g and 40,000 g. 450 μg of protein from brain homogenate is incubated in each case in 250 μl incubation batches in 96-well microtitre plates with 15 nM ^3[H]-MPEP (Tocris, order number R1212) and the compounds to be investigated (in each case 10 μM in the test) in the above-stated buffer at room temperature for 60 minutes.
The batches are then filtered with the assistance of a Brandel Cell Harvester (Brandel, Grade Robotic 9600) on Unifilter plates with glass filter mats (Perkin Elmer, order number 6005177) and then rewashed 3 times with buffer of the above-stated composition using 250 μl per sample. The filter plates are then dried for 60 minutes at 55° C. Then 30 μl of Ultima Gold scintillating material (Packard BioScience, order number 6013159) is added per well and after 3 hours the samples are measured using the B counter ([…], Perkin Elmer). Nonspecific binding is determined by the addition of 10 μM 2-methyl-6-(phenylethynyl)-pyridine (Tocris, order number 1212).

For the next experiment, the target named is T3, NA transporter (Rattus norvegicus, UniProt Q63380).
T3 construct: from tissue; host or cells: rat hypothalamus synaptosomes (P2 fraction)
Briefly: Noradrenalin uptake inhibition in rat brain synaptosomes (hypothalamus). The format is biochemical.
Text: as §1, §2, §3, §4, §5, §6, §7, §8, §9, §10, §11

T1 sequence (P31652 whole entry): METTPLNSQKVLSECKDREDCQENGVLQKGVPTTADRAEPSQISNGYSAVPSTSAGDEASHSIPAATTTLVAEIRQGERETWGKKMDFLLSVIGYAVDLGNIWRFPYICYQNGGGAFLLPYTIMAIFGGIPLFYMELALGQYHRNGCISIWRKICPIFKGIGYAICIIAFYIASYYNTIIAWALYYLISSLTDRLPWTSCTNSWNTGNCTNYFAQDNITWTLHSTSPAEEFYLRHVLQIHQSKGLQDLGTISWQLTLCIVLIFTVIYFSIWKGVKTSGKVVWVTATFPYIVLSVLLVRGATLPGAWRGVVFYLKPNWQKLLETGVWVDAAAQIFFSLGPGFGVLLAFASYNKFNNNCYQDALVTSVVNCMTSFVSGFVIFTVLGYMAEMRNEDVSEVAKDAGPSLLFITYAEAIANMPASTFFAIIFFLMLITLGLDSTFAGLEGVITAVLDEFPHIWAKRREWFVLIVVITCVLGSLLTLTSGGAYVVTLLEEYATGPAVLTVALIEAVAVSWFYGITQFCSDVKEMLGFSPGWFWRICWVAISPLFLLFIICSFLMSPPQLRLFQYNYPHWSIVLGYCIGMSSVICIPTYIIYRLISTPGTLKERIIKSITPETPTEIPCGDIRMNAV
T2 sequence (I3LUI7 19-1212): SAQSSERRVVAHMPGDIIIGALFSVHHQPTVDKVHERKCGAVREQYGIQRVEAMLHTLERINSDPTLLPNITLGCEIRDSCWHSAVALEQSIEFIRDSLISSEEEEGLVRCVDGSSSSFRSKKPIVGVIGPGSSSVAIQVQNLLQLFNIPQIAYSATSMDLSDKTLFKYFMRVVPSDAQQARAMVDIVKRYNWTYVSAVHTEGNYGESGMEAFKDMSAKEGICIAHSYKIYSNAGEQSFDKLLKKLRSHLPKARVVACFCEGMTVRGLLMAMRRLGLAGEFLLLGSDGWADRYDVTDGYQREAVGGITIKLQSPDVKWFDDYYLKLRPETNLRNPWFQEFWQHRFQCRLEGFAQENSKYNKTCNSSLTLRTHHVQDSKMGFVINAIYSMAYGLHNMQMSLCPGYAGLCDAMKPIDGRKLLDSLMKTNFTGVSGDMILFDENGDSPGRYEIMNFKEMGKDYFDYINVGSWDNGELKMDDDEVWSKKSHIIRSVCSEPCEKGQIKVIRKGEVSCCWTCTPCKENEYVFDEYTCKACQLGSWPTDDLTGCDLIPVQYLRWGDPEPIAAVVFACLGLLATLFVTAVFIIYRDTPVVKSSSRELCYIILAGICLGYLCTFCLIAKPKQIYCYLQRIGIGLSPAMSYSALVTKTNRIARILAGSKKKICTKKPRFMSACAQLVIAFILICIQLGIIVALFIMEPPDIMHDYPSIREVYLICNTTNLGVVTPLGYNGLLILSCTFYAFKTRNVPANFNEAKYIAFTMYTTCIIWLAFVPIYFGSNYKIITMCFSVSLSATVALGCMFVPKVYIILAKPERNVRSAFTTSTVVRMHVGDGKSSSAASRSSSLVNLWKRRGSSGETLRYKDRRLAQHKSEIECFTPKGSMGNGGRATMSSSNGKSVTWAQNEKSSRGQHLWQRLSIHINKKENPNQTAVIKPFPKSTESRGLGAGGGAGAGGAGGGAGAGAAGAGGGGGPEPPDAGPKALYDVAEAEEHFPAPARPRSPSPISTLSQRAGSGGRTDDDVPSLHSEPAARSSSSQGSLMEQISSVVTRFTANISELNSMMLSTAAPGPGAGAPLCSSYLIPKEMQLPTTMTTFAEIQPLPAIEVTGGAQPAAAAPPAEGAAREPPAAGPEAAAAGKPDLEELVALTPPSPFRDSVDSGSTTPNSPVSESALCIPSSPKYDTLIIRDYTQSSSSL
T3 sequence (Q63380 1-617): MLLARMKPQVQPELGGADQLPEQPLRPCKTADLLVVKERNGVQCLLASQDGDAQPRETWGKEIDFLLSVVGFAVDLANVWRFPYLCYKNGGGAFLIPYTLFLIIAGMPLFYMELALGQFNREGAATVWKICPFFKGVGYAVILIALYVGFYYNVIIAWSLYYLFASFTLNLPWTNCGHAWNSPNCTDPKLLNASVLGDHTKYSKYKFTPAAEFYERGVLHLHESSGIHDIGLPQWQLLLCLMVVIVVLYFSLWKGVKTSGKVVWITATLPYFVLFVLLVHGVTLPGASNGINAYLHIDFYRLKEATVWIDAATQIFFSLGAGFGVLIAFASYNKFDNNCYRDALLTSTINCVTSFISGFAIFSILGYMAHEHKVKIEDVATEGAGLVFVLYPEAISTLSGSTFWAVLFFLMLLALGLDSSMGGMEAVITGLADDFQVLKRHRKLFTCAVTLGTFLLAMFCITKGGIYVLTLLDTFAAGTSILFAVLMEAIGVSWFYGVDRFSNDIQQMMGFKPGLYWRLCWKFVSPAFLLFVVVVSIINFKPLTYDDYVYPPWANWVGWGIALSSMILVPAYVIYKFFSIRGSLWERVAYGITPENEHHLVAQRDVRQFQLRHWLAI

As a reminder, the inhibition is the percentage by which the read-out fell short of the control. `O=C(Nc1ncc2c(n1)CCN(C(=O)c1ccc(F)cc1F)C2)c1ccc(Cl)cc1` [Example 152, 4-chloro-N-[6-(2,4-difluoro-benzoyl)-5,6,7,8-tetrahydro-pyrido[4,3-d]pyrimidin-2-yl]-benzamide] yielded an inhibition at 1 µM at 5-HT transporter of 33%. At mGluR5 receptor, the inhibition at 10 µM worked out at 34%.
Turning to `O=C(Nc1ncc2c(n1)CCC(NS(=O)(=O)c1cc(Cl)sc1Cl)C2)c1cccs1` (centres unmarked) [Example 180, thiophene-2-carboxylic acid [6-(2,5-dichloro-thiophene-3-sulfonylamino)-5,6,7,8-tetrahydro-quinazolin-2-yl]-amide], the results for the inhibition at 10 µM against NA transporter and on mGluR5 receptor were 34% and 86.7%, respectively.
The corresponding values for `Cc1ccc(S(=O)(=O)N2CCc3nc(NC(=O)c4cccc(F)c4)ncc3C2)cc1` [Example 143, 3-fluoro-N-[6-(toluene-4-sulfonyl)-5,6,7,8-tetrahydro-pyrido[4,3-d]pyrimidin-2-yl]-benzamide] are 53% and 37.2%.
The compound `O=C(Nc1ncc2c(n1)CCC(NS(=O)(=O)c1ccc(Cl)s1)C2)c1ccc(F)cc1` (centres unmarked) [Example 202, N-[6-(5-chloro-thiophene-2-sulfonylamino)-5,6,7,8-tetrahydro-quinazolin-2-yl]-4-fluoro-benzamide] registered an inhibition at 10 µM on mGluR5 receptor of 33.1%.
Still for that read-out and setting: with `O=C(Nc1ncc2c(n1)CCN(S(=O)(=O)Cc1ccccc1)C2)c1ccc(F)cc1` [Example 178, 4-fluoro-N-(6-phenylmethanesulfonyl-5,6,7,8-tetrahydro-pyrido[4,3-d]pyrimidin-2-yl)-benzamide] the figure was 45.3%.
With `O=C(Cc1cccc2ccccc12)NC1CCc2nc(NC(=O)c3cccs3)ncc2C1` (centres unmarked) [Example 177, thiophene-2-carboxylic acid [6-(2-naphthalen-1-yl-acetylamino)-5,6,7,8-tetrahydro-quinazolin-2-yl]-amide], at 5-HT transporter, the inhibition at 1 µM was 39%. On mGluR5 receptor, this compound registered an inhibition at 10 µM of 42%.
As for `O=C(Nc1ncc2c(n1)CCN(C(=O)c1ccc(Cl)c(Cl)c1)C2)c1cccnc1` [Example 156, N-[6-(3,4-dichloro-benzoyl)-5,6,7,8-tetrahydro-pyrido[4,3-d]pyrimidin-2-yl]-nicotinamide], the inhibition at 10 µM on NA transporter was found to be 50%; on mGluR5 receptor it was 46%.
Consider `CC(C)(C)c1ccc(C(=O)Nc2ncc3c(n2)CCN(C(=O)c2csc(-c4ccccc4)n2)C3)cc1` [Example 29, 4-tert-butyl-N-[6-(2-phenyl-thiazole-4-carbonyl)-5,6,7,8-tetrahydro-pyrido[4,3-d]pyrimidin-2-yl]-benzamide], for which the inhibition at 10 µM at mGluR5 receptor came out at 40.5%.
Same read-out and setting: with `CC(C)C(NC(=O)OCC1c2ccccc2-c2ccccc21)C(=O)NC1CCc2nc(NC(=O)c3cccs3)ncc2C1` (centres unmarked) [Example 139, (2-methyl-1-{2-[(thiophene-2-carbonyl)-amino]-5,6,7,8-tetrahydro-quinazolin-6-ylcarbamoyl}-propyl)-carbamic acid 9H-fluoren-9-ylmethyl ester] the figure was 31%; with `CCOc1ccccc1C(=O)Nc1ncc2c(n1)CCN(C(=O)c1sccc1Cl)C2` [Example 145, N-[6-(3-chloro-thiophene-2-carbonyl)-5,6,7,8-tetrahydro-pyrido[4,3-d]pyrimidin-2-yl]-2-ethoxy-benzamide], 84.4%.
Regarding `O=C(CCCCCNC(=O)OCc1ccccc1)NC1CCc2nc(NC(=O)c3ccc(F)cc3)ncc2C1` (centres unmarked) [Example 181, {5-[2-(4-fluoro-benzoylamino)-5,6,7,8-tetrahydro-quinazolin-6-ylcarbamoyl]-pentyl}-carbamic acid benzyl ester], at 10 µM the inhibition on mGluR5 receptor was 36.4%.
Compound `CC(C)(C)OC(=O)N1CCC(C(=O)NC2CCc3nc(NC(=O)c4ccc(F)cc4)ncc3C2)CC1` (centres unmarked) [Example 194, 4-[2-(4-fluoro-benzoylamino)-5,6,7,8-tetrahydro-quinazolin-6-ylcarbamoyl]-piperidine-1-carboxylic acid tert-butyl ester] had an inhibition at 10 µM at mGluR5 receptor of 45.6%.
At mGluR5 receptor, `CCCC(=O)Nc1ncc2c(n1)CCC(NS(=O)(=O)c1cccc(C)c1)C2` (centres unmarked) [Example 146, N-[6-(toluene-3-sulfonylamino)-5,6,7,8-tetrahydro-quinazolin-2-yl]-butyramide] registered an inhibition at 10 µM of 39.6%.
At mGluR5 receptor, `Cc1nc(C(F)(F)F)ccc1C(=O)NC1CCc2nc(NC(=O)c3ccc(F)cc3)ncc2C1` (centres unmarked) [Example 197, N-[2-(4-fluoro-benzoylamino)-5,6,7,8-tetrahydro-quinazolin-6-yl]-2-methyl-6-trifluoromethyl-nicotinamide] showed an inhibition at 10 µM of 32.1%.
In the case of `Cc1ccccc1C(=O)N1CCc2nc(NC(=O)c3cccc(Cl)c3)ncc2C1` [Example 109, 3-chloro-N-[6-(2-methyl-benzoyl)-5,6,7,8-tetrahydro-pyrido[4,3-d]pyrimidin-2-yl]-benzamide], the inhibition at 1 µM against 5-HT transporter came to 30%. The compound also had an inhibition at 10 µM against NA transporter of 92%.
Taken in the same sequence, the figures for `Cc1cc(C)c(S(=O)(=O)N2CCc3nc(NC(=O)c4ccc(Cl)c(Cl)c4)ncc3C2)c(C)c1` [Example 95, 3,4-dichloro-N-[6-(2,4,6-trimethyl-benzenesulfonyl)-5,6,7,8-tetrahydro-pyrido[4,3-d]pyrimidin-2-yl]-benzamide] were 59% and 72%.
For the compound `CCCC(=O)Nc1ncc2c(n1)CCC(NC(=O)C=Cc1cccc(C(F)(F)F)c1)C2` (centres unmarked) [Example 168, N-(2-butyrylamino-5,6,7,8-tetrahydro-quinazolin-6-yl)-3-(3-trifluoromethyl-phenyl)-acrylamide], on 5-HT transporter, the inhibition at 1 µM worked out at 46%. At mGluR5 receptor, the inhibition at 10 µM was found to be 33.5%.
The compound `COc1ccc(C(=O)N2CCc3nc(NC(=O)c4cccc(Cl)c4)ncc3C2)cc1OC` [Example 119, 3-chloro-N-[6-(3,4-dimethoxy-benzoyl)-5,6,7,8-tetrahydro-pyrido[4,3-d]pyrimidin-2-yl]-benzamide] gave an inhibition at 1 µM against 5-HT transporter of 34%. The same compound returned an inhibition at 10 µM against NA transporter of 72%.
For `COc1cccc(C(=O)Nc2ncc3c(n2)CCN(S(=O)(=O)c2cc(Br)ccc2OC)C3)c1` [Example 129, N-[6-(5-bromo-2-methoxy-benzenesulfonyl)-5,6,7,8-tetrahydro-pyrido[4,3-d]pyrimidin-2-yl]-3-methoxy-benzamide], 10 µM produced 51.1% inhibition at mGluR5 receptor.
Consider `COc1ccccc1C(=O)Nc1ncc2c(n1)CCN(C(=O)c1cc(-c3ccc(Cl)cc3)oc1C)C2` [Example 78, N-{6-[5-(4-chloro-phenyl)-2-methyl-furan-3-carbonyl]-5,6,7,8-tetrahydro-pyrido[4,3-d]pyrimidin-2-yl}-2-methoxy-benzamide], for which 10 µM produced 41.1% inhibition on mGluR5 receptor.
`CCc1ccc(C(=O)Nc2ncc3c(n2)CCN(C(=O)c2ccc(-n4cccn4)cc2)C3)cc1` [Example 74, 4-ethyl-N-[6-(4-pyrazol-1-yl-benzoyl)-5,6,7,8-tetrahydro-pyrido[4,3-d]pyrimidin-2-yl]-benzamide] yielded an inhibition at 1 µM against 5-HT transporter of 54%. In addition, on NA transporter, the inhibition at 10 µM worked out at 43%.
Compound `O=C(Nc1ncc2c(n1)CCN(C(=O)CCC1CCCC1)C2)c1ccncc1` [Example 132, N-[6-(3-cyclopentyl-propionyl)-5,6,7,8-tetrahydro-pyrido[4,3-d]pyrimidin-2-yl]-isonicotinamide] showed an inhibition at 10 µM on mGluR5 receptor of 58.1%.
